Experiments:
Assay type in all cases: biochemical
[1] = target: T1, FXIIa (Homo sapiens, UniProt P00748); assay: Determination of Factor XIIa inhibition, chromogenic substrate S-2302 assay; conditions: human FXIIa alpha
T1 sequence (P00748 373-615 limits assumed): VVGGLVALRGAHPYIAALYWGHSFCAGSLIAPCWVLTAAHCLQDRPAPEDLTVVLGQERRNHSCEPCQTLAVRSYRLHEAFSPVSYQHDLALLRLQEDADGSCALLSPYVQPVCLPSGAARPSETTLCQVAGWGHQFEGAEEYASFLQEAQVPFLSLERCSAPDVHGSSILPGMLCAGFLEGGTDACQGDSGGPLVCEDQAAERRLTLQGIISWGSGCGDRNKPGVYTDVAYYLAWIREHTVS
T1 sequence (P00748 20-372 partner limits assumed): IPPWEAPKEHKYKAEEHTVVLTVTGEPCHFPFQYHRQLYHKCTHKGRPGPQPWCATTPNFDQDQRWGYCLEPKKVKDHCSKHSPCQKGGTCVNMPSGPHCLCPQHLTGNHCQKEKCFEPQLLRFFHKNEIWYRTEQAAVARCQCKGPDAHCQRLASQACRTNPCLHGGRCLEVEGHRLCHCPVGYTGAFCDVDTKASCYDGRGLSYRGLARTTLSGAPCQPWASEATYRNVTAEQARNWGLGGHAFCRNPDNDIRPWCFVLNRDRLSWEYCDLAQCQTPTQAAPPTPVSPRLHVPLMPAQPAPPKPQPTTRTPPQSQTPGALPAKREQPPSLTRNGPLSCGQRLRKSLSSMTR
Procedure: (§1) The activities of the compounds of the invention have been determined in vitro using the following assays protocols for the screening of activity of FXIIa and other proteases. Each of these assays were performed in a purified system employing the use of chromogenic assays in microplate plate wells. Chromogenic peptide substrates mimicking natural protein substrates are attached via an amide bond to a chromogenic group. Paranitroaniline (pNA) is released from the peptide following catalyses by the proteolytic enzyme; the absorbance increases and can be monitored at 405 nm.
(§2) All compounds were dissolved in 100% (v/v) DMSO to a stock concentration of 10 mM, the highest concentration of compound used in each assay is 500 μM. The final concentrations of DMSO were 5% (v/v) in 50 mM Tris 137 mM NaC pH 7.4. Where no test compound was added a final concentration of 5% DMSO was employed.
Determination of Factor XIa Inhibition
Factor XIa activity was measured using a chromogenic substrate S-2302 (Chromogenix). Various concentrations of compound were incubated with 10 nM of FXIIa and incubated at 37° C. for 10 minutes in 50 mM Tris, 137 mM NaCl, pH 7.4, prior to the addition of a final concentration of 450 µM S-2302 chromogenic substrate. Kinetic readings at 405 nm were monitored every 12 secs for a total duration of 3 hours at 37° C. Gradients of initial rates were determined and employed to calculate IC50 values. Values of IC50 were converted to Ki values based on the formula: Ki=IC50/(1+[Substrate]/Km).
The activity of the compounds of the invention has been categorised based on the Ki values, the categories being “*”, “**” and “***”. […] The category “**” refers to compounds with a Ki value of 0.2 μM to 2 μM.

[2] = target: T2, thrombin (Homo sapiens, UniProt P00734); assay: Determination of selectivity: thrombin inhibition, chromogenic substrate GPR assay; conditions: fold selectivity for FXIIa over thrombin
T2 construct: FXa (5 nM) and thrombin (5 nM)
Procedure: as §1, §2
(§3) Determination of Selectivity
(§4) To determine selectivity of test compounds, these test compounds were assayed for inhibitory activity against other serine proteases including FXa and thrombin. Essentially compounds at increasing concentrations were incubated with each enzyme: FXa (5 nM) and thrombin (5 nM), for 10 mins at 37° C. followed the appropriate chromogenic substrate, S2765 ([…]), and GPR ([…]) respectively in 50 mM Tris, 137 mM NaCl, pH 7.4. Chromogenic substrates S2765 was from Chromogenix, and GPR from Bachem. Kinetic readings at 405 nm were monitored every 12 secs for a total duration of 3 hours at 37° C. Gradients of initial rates were determined and employed to calculate IC50 values. Values of IC50 were converted to Ki values based on the formula: Ki=IC50/(1+[Substrate]/Km)
(§5) Where [Substrate] denotes the concentration of substrate used in the assay and Km is the determined value of each enzyme with its own substrate.
(§6) The fold selectivity for FXIIa over thrombin for the compounds of the invention has been categorised based on the fold selectivity values, the categories being “+”, “++” and “+++”. The category “+” refers to fold selectivity values less than 10. The category “++” refers to a fold selectivity value of 10 to 100. The category “+++” refers to fold selectivity values greater than 100.

[3] = target: FXa (Homo sapiens, UniProt P00742); assay: Determination of selectivity: FXa inhibition, chromogenic substrate S2765 assay; conditions: fold selectivity for FXIIa over FXa
FXa, sequence (P00742 235-488 limits assumed): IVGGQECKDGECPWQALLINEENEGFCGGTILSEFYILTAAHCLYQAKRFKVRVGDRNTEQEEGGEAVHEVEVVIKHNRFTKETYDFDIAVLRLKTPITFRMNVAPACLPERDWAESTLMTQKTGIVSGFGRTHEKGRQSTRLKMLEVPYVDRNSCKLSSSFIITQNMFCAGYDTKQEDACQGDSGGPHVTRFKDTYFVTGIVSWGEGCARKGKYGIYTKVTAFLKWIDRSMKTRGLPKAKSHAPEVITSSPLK
FXa, sequence (P00742 41-179 partner limits assumed): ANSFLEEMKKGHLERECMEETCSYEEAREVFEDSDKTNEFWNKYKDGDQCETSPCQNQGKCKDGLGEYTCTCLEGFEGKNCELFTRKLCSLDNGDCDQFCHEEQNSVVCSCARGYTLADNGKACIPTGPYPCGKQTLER
Procedure: as §1, §2, §3, §4, §5, §6
The fold selectivity for FXIIa over FXa for the compounds of the invention has been categorised based on the fold selectivity values, the categories being “o”, “oo” and “ooo”. The category “o” refers to fold selectivity values less than 10. The category “oo” refers to a fold selectivity value of 10 to 100. The category “ooo” refers to fold selectivity values greater than 100.

Structure (SMILES) | Ki [1] | Thrombin (human)/FXIIa alpha (human) [2] | FXa (human)/FXIIa alpha (human) [3]
COc1ccc(C[C@@H]2C[C@@H](C(=O)NCc3cc4cnccc4[nH]3)N(C(=O)C3NCCc4cc(Cl)ccc43)C2)cc1 (stereo partly drawn) [Example M00965] | < 200 nM | +++ (fold selectivity values greater than 100) | ∘∘∘
COc1ccc(C[C@@H]2C[C@@H](C(=O)NCc3cc4cnccc4[nH]3)N(C(=O)C3C[C@@H](C(=O)N4CCCC4)CCN3)C2)cc1 (stereo partly drawn) [Example M00966] | < 200 nM | +++ (fold selectivity values greater than 100) | ∘∘∘
COc1ccc(C[C@@H]2C[C@@H](C(=O)NCc3cc4cnccc4[nH]3)N(C(=O)[C@H]3C[C@@H](C(=O)N4CCCC4(C)C)CCN3)C2)cc1 [Example M00967] | < 200 nM | +++ (fold selectivity values greater than 100) | ∘∘∘
Cc1ccc(C[C@@H]2C[C@@H](C(=O)NCc3cc4cnccc4[nH]3)N(C(=O)[C@H](N)CCC(=O)N3CCCC3)C2)cc1 [Example M00968] | < 200 nM | +++ (fold selectivity values greater than 100) | ∘∘∘
N[C@H](CCC(=O)N1CCCC1)C(=O)N1C[C@H](Cc2ccc(C(F)(F)F)cc2)C[C@H]1C(=O)NCc1cc2cnccc2[nH]1 [Example M00969] | < 200 nM | +++ (fold selectivity values greater than 100) | ∘∘∘
O=C(NCc1cc2cnccc2[nH]1)[C@@H]1C[C@@H](Cc2ccc(C(F)(F)F)cc2)CN1C(=O)C1NCCc2cc(Cl)ccc21 (stereo partly drawn) [Example M00970] | 200 to 2000 nM | ++ (fold selectivity value of 10 to 100) | ∘∘∘
COc1ccc(C[C@@H]2C[C@@H](C(=O)NCc3cccs3)N(C(=O)[C@H](N)CCC(=O)N3CCCC3)C2)cc1 [Example M00972] | 200 to 2000 nM | ++ (fold selectivity value of 10 to 100) | ∘∘
COc1ccc(C[C@@H]2C[C@@H](C(=O)NCc3nc4cnccc4[nH]3)N(C(=O)[C@H](N)CCC(=O)N3CCCC3)C2)cc1 [Example M00973] | > 2000 nM | +++ (fold selectivity values greater than 100) | ∘∘∘
N[C@H](CCc1ccccc1)C(=O)N1CCC[C@H]1C(=O)NCc1ccc2nccn2c1 [Example M05021] | > 2000 nM | + (fold selectivity values less than 10) | ∘∘
COc1cc(CNC(=O)[C@@H]2CCCN2C(=O)[C@H](N)CCc2ccccc2)cnc1CN [Example M05053] | > 2000 nM | + (fold selectivity values less than 10) | ∘∘
NCc1ccc(CNC(=O)[C@@H]2C[C@H](O)CN2C(=O)[C@H](N)CCc2ccccc2)cn1 [Example M05054] | > 2000 nM | ++ (fold selectivity value of 10 to 100) | ∘∘
COc1cc(CNC(=O)[C@@H]2C[C@H](O)CN2C(=O)[C@H](N)CCc2ccccc2)ccc1CN [Example M05056] | 200 to 2000 nM | +++ (fold selectivity values greater than 100) | ∘∘∘
COc1cc(CNC(=O)[C@@H]2C[C@H](c3ccccc3)CN2C(=O)[C@H](N)CCc2ccccc2)ccc1CN [Example M05068] | 200 to 2000 nM | ++ (fold selectivity value of 10 to 100) | ∘∘∘
COc1cc(CNC(=O)[C@@H]2C[C@H](C)CN2C(=O)[C@H](N)CCc2ccccc2)ccc1CN [Example M05073] | 200 to 2000 nM | + (fold selectivity values less than 10) | ∘∘
COc1cc(CNC(=O)[C@@H]2C[C@@H](C)CN2C(=O)[C@H](N)CCc2ccccc2)ccc1CN [Example M05074] | 200 to 2000 nM | + (fold selectivity values less than 10) | ∘∘∘
NCc1ccc(CNC(=O)[C@@H]2C[C@H](C3CCCCC3)CN2C(=O)[C@H](N)CCc2ccccc2)cc1 [Example M05076, (2S,4R)-1-((R)-2-Amino-4-phenyl-butyryl)-4-cyclohexyl-pyrrolidine-2-carboxylic acid 4-aminomethyl-benzylamide] | > 2000 nM | ++ (fold selectivity value of 10 to 100) | ∘∘
N#C[C@@H]1C[C@@H](C(=O)NCc2ccc(CN)cc2)N(C(=O)[C@H](N)CCc2ccccc2)C1 [Example M05091, (2S,4R)-1-((R)-2-Amino-4-phenyl-butyryl)-4-cyano-pyrrolidine-2-carboxylic acid 4-aminomethyl-benzylamide] | > 2000 nM | + (fold selectivity values less than 10) | ∘∘
NCc1ncc(CNC(=O)[C@@H]2CCCN2C(=O)[C@H](N)CCc2ccccc2)s1 [Example M05099] | > 2000 nM | + (fold selectivity values less than 10) | ∘∘
Cn1nnc2cc(CNC(=O)[C@@H]3C[C@H](C(F)(F)F)CN3C(=O)[C@H](N)CCc3ccccc3)ccc21 [Example M05102] | > 2000 nM | ++ (fold selectivity value of 10 to 100) | ∘∘
NCc1ccc(CNC(=O)[C@@H]2C[C@@H](Cc3ccc(Cl)cc3)CN2C(=O)[C@H](N)CCc2ccccc2)cc1 [Example M05117] | 200 to 2000 nM | ++ (fold selectivity value of 10 to 100) | ∘∘∘
Cn1nnc2cc(CNC(=O)[C@@H]3C[C@@H](c4ccccc4)CN3C(=O)[C@H](N)CCc3ccccc3)ccc21 [Example M05119, (2S,4S)-1-((R)-2-Amino-4-phenyl-butyryl)-4-phenyl-pyrrolidine-2-carboxylic acid (1-methyl-1H-benzotriazol-5-ylmethyl)-amide] | > 2000 nM | ++ (fold selectivity value of 10 to 100) | ∘∘
Nc1cc(CNC(=O)[C@@H]2C[C@@](O)(c3ccccc3)CN2C(=O)[C@H](N)CCc2ccccc2)ccn1 [Example M05125] | 200 to 2000 nM | ++ (fold selectivity value of 10 to 100) | ∘∘
Cn1nnc2cc(CNC(=O)[C@@H]3C[C@@](O)(c4ccccc4)CN3C(=O)[C@H](N)CCc3ccccc3)ccc21 [Example M05126] | > 2000 nM | ++ (fold selectivity value of 10 to 100) | ∘∘

— US12336991B2, “Factor XIIA inhibitors” (UNIVERSITY OF LEEDS, priority 2018, dated 2025)
